According to PubChem BioAssay (NCI):
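Where inhibition never reached the appropriate level, the endpoint shown equals the highest concentration tested. Otherwise, values were interpolated linearly from a five-concentration, 48-hour dose response in 96-well plates. At the GI50, growth is halved. TGI is the concentration that stops growth completely.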

How the values were obtained:
Test in all cases: growth of human tumour cells (NCI), 48 h
[1] = tested on: TK-10 renal
[2] = tested on: KM12 colon
[3] = tested on: SK-MEL-2 melanoma
[4] = tested on: SNB-19 CNS
[5] = tested on: SK-MEL-28 melanoma
[6] = tested on: 786-0 renal
[7] = tested on: SF-539 CNS
[8] = tested on: HCT-15 colon
[9] = tested on: NCI-H460 lung
[10] = tested on: HOP-92 NSCLC
[11] = tested on: SK-MEL-5 melanoma
[12] = tested on: HL-60(TB) leukemia
[13] = tested on: LOX IMVI melanoma
[14] = tested on: SF-268 CNS
[15] = tested on: HT29 colon
[16] = tested on: HS 578T breast
[17] = tested on: A549 NSCLC
[18] = tested on: MDA-MB-435
[19] = tested on: OVCAR-4 ovarian
[20] = tested on: COLO 205 colon
[21] = tested on: SN12C renal
[22] = tested on: OVCAR-8 ovarian
[23] = tested on: NCI/ADR-RES ovarian
[24] = tested on: ACHN renal
[25] = tested on: MOLT-4 leukemia
[26] = tested on: OVCAR-3 ovarian
[27] = tested on: RXF 393 renal
[28] = tested on: IGROV1 ovarian
[29] = tested on: SW-620 colon
[30] = tested on: NCI-H522 lung
[31] = tested on: HOP-62 NSCLC
[32] = tested on: SK-OV-3 ovarian
[33] = tested on: BT-549 breast
[34] = tested on: MALME-3M melanoma
[35] = tested on: UACC-257 melanoma
[36] = tested on: HCT-116 colon
[37] = tested on: U251 CNS
[38] = tested on: UACC-62 melanoma
[39] = tested on: M14 melanoma
[40] = tested on: HCC-2998 colon
[41] = tested on: NCI-H23 lung
[42] = tested on: CCRF-CEM leukemia
[43] = tested on: DU-145 prostate
[44] = tested on: UO-31 renal
[45] = tested on: CAKI-1 renal
[46] = tested on: PC-3 prostate
[47] = tested on: SNB-75 CNS
[48] = tested on: RPMI-8226 leukemia
[49] = tested on: A498 renal
[50] = tested on: MCF7 breast
[51] = tested on: K-562 leukemia
[52] = tested on: SF-295 CNS
[53] = tested on: MDA-MB-231 breast
[54] = tested on: SR leukemia
[55] = tested on: OVCAR-5 ovarian
[56] = tested on: T-47D breast

With OCc1ccc(N2CCc3cc(F)ccc3C2)cc1Cl the TGI [1] was 41.6 nM, the GI50 [2] was 13.2 µM and the TGI [2] was 27.3 µM. It also gave a GI50 [3] of 375 nM, a TGI [3] of 17.8 µM and a GI50 [4] of 13.2 µM. It also gave a TGI [4] of 26.3 µM, a GI50 [5] of 13.8 µM and a TGI [5] of 26.9 µM. For the same compound, the GI50 [6] was 8.64 µM, the TGI [6] was 22.7 µM and the GI50 [7] was 16.1 µM. The TGI [7] was 30.2 µM, the GI50 [8] was 3.98 µM and the TGI [8] was 21.2 µM. For the same compound, the GI50 [9] was 58.3 nM, the TGI [9] was 1840 nM and the GI50 [10] was 199 nM. For the same compound, the TGI [10] was 6.36 µM, the GI50 [11] was 3.95 µM and the TGI [11] was 20.4 µM. The GI50 [12] was 1640 nM, the TGI [12] was 29.1 µM and the GI50 [13] was 9.7 µM. It also gave a TGI [13] of 24.5 µM, a GI50 [14] of 15.2 µM and a TGI [14] of 29.9 µM. It also gave a GI50 [15] of 167 nM, a TGI [15] of 14.1 µM and a GI50 [16] of 21.3 µM. It also gave a TGI [16] of 59.1 µM, a GI50 [17] of 389 nM and a TGI [17] of 14.5 µM. The GI50 [18] was 13.1 µM, the TGI [18] was 27.6 µM and the GI50 [19] was 27.7 nM. For the same compound, the TGI [19] was 354 nM, the GI50 [20] was 82.8 nM and the TGI [20] was 353 nM. It also gave a GI50 [21] of 10.9 µM, a TGI [21] of 23.2 µM and a GI50 [22] of 7.31 µM. For the same compound, the TGI [22] was 20.8 µM, the GI50 [23] was 11.3 µM and the TGI [23] was 33.7 µM. The GI50 [24] was 11.8 µM, the TGI [24] was 24.4 µM and the GI50 [25] was 15 µM. It also gave a TGI [25] of 47.4 µM, a GI50 [26] of 51.8 nM and a TGI [26] of 288 nM. The GI50 [27] was 993 nM, the TGI [27] was 17.5 µM and the GI50 [28] was 17 nM. The TGI [28] was 94.1 nM, the GI50 [29] was 170 nM and the TGI [29] was 15.8 µM. The GI50 [30] was 12.7 µM, the TGI [30] was 25.9 µM and the GI50 [31] was 302 nM. It also gave a TGI [31] of 17.9 µM, a GI50 [32] of 3.85 µM and a TGI [32] of 15.9 µM. The GI50 [33] was 15.1 µM, the TGI [33] was 28.7 µM and the GI50 [34] was 16.6 µM. For the same compound, the TGI [34] was 31.8 µM, the GI50 [35] was 19.7 nM and the TGI [35] was 72.3 nM. The GI50 [36] was < 16.6 nM, the TGI [36] was 11.2 µM and the GI50 [37] was 93.3 nM. The TGI [37] was 14 µM, the GI50 [38] was 25.6 nM and the TGI [38] was 198 nM. The GI50 [39] was 16.2 µM, the TGI [39] was 30.7 µM and the GI50 [40] was 1580 nM. The TGI [40] was 12.8 µM, the GI50 [41] was 12.8 µM and the TGI [41] was 30.2 µM. For the same compound, the GI50 [42] was 3.9 µM, the TGI [42] was 28.9 µM and the GI50 [43] was 6.67 µM. For the same compound, the TGI [43] was 20.6 µM, the GI50 [44] was 1700 nM and the TGI [44] was 18.4 µM. The GI50 [45] was 1340 nM, the TGI [45] was 13.6 µM and the GI50 [46] was 11 µM. For the same compound, the TGI [46] was 27.6 µM, the GI50 [47] was 15.1 µM and the TGI [47] was 28.6 µM. It also gave a GI50 [48] of 244 nM, a TGI [48] of 22.2 µM and a GI50 [49] of 20.6 nM. It also gave a TGI [49] of 75.6 nM, a GI50 [50] of 77.1 nM and a TGI [50] of 13.3 µM. For the same compound, the GI50 [51] was 125 nM, the TGI [51] was 17.2 µM and the GI50 [52] was 44.9 nM. For the same compound, the TGI [52] was 13.9 µM, the GI50 [53] was 12.9 µM and the TGI [53] was 26.2 µM. The GI50 [54] was 3.29 µM and the TGI [54] was 24 µM.

For Cc1cc(C)c2c(c1)CC1(Cc3ccc(C)c(C)c3C1=O)C2=O (stereo not given), the TGI [1] was > 100000 nM, the TGI [3] was > 100 µM and the TGI [4] was > 100 µM. The TGI [5] was > 100 µM, the TGI [6] was > 100 µM and the TGI [7] was > 100 µM. For the same compound, the TGI [9] was > 100000 nM, the TGI [10] was > 100 µM and the TGI [11] was > 100 µM. The TGI [13] was > 100 µM, the TGI [14] was > 100 µM and the TGI [16] was > 100 µM. The TGI [55] was > 100 µM, the TGI [17] was > 100 µM and the TGI [19] was > 100000 nM. The TGI [21] was > 100 µM, the TGI [22] was > 100 µM and the TGI [26] was > 100000 nM. For the same compound, the TGI [27] was > 100 µM, the TGI [30] was > 100 µM and the TGI [32] was > 100 µM. For the same compound, the TGI [33] was > 100 µM, the TGI [34] was > 100 µM and the TGI [35] was > 100000 nM. The TGI [37] was > 100 µM, the TGI [38] was > 100000 nM and the TGI [39] was > 100 µM. The TGI [40] was > 100 µM, the TGI [41] was > 100 µM and the TGI [43] was > 100 µM. For the same compound, the TGI [44] was > 100 µM, the TGI [45] was > 100 µM and the TGI [46] was > 100 µM. The TGI [47] was > 100 µM, the TGI [48] was > 100 µM and the TGI [49] was > 100000 nM. The TGI [53] was > 100 µM and the TGI [56] was > 100 µM.
